The results in this text go back to US9260500B2, “Peptide and use thereof” (Takeda Pharmaceutical Company Limited, priority 2009, dated 2016).

This test deals with male C57BL/6J mouse. The experiment in a line: 3-Day Continuous Subcutaneous Administration Test-2 (food intake suppressing activity). In kind it is in vivo. The note with it: 0.03 mg/kg/day, subcutaneous Alzet pump, food consumption as of 2 days after start; versus solvent (50% DMSO) control group. The procedure: (5) Test Method: 3-Day Continuous Subcutaneous Administration Test-2
The food intake suppressing activity of the compound of the present invention was examined by the following method.
The test compound was dissolved in a solvent (50% DMSO) so that sustained release would occur at 0.03 mg/kg/day, and the solution was filled in the Alzet Pump (DURECT Corporation, model: 1003D). After the filling, the pump was immersed in physiological saline for priming, and then used. The pump was embedded by the following method. Each male C57BL/6J mouse at 9-10 weeks of age (25° C., allowed to take food and water ad libitum; 12-hour bright-12-hour dark cycle) was anesthetized; the skin in the upper back thereof was incised, and the above-mentioned pump was embedded subcutaneously; the incision was sutured. After weighing, this mouse was returned to the rearing cage (reared alone), and given previously weighed food; food consumption as of 2 days after the start of administration was measured. The food consumption was calculated by subtracting the amount of remaining food from the weight of the food given on the day of the start of administration. From the food consumption obtained, the food intake suppression rate (%) of each test compound was calculated using the following the formula.
A group receiving administration of the aforementioned solvent alone was the control group.
Food intake suppression rate (%): (Food consumption for control group−food consumption for test compound administration group)/food consumption for control group×100
For the substance “4-Imidazolecarbonyl-[D-Pro24, Pya(4)26, Cha27,36, Iva28, Lys(Ac)30, Aib31]-PYY(23-36) [compound No. 371]”, the “food intake suppression rate (%)” value was determined as 18.6%. For the substance “4-Imidazolecarbonyl-[D-Hyp24, Iva25, Pya(4)26, Cha27, Leu(Me)28, Lys30, Aib31, Phe(2,6-Me2)36]-PYY(23-36) [compound No. 360]”, the “food intake suppression rate (%)” value stood at 36.7%. Regarding “Thp(4)-NHCO-[D-Hyp24, Iva25, Pya(4)26, Cha27,36, Leu(Me)28, Lys30, Aib31]-PYY(23-36) [compound No. 358]”, the “food intake suppression rate (%)” value came to 62.5%. “4-Imidazolecarbonyl-[D-Hyp24, Pya(4)26, Cha27,36, Leu(Me)28, Lys30, Aib31]-PYY(23-36) [compound No. 370]”: the “food intake suppression rate (%)” value is 17.9%.

With “4-Imidazolecarbonyl-[D-Hyp24, Iva25, Pya(4)26, Cha27,36, Leu(Me)28, Lys(Ac)30, D-Iva31]-PYY(23-36) [compound No. 369]”, the “food intake suppression rate (%)” value is recorded as 47.8%. For the substance “4-Imidazolecarbonyl-[D-Pro24, Pya(4)26, Cha27,36, Iva28, Lys30, Aib31]-PYY(23-36) [compound No. 366]”, the “food intake suppression rate (%)” value is given as 32.9%.

Regarding “Thp(4)-CO-[D-Hyp24, Iva25, Pya(4)26, Cha27,36, Leu(Me)28, Lys30, Aib31]-PYY(23-36) [compound No. 361]”, the “food intake suppression rate (%)” value was found to be 23.3%. For “4-Imidazolecarbonyl-[Aib24,31, Iva25, Pya(4)26, Cha27,36, Leu(Me)28, Lys(Ac)30]-PYY(23-36) [compound No. 368]”, the “food intake suppression rate (%)” value turned out to be 34.9%. Turning to “[D-Hyp24, Iva25, Pya(4)26, Cha27,36, Leu(Me)28, Lys(Ac)30, Aib31]-PYY(23-36) [compound No. 373]”, the “food intake suppression rate (%)” value stood at 17.5%.

In the case of “Carbamoyl-[D-Hyp24, Iva25, Pya(4)26, Cha27,36, Leu(Me)28, Lys30, Aib31]-PYY(23-36) [compound No. 364]”, the “food intake suppression rate (%)” value amounted to 37.3%. On to “4-Imidazolecarbonyl-[D-Pro24, Iva25, Pya(4)26, Cha27,36, Leu(Me)28, Lys(Ac)30, Aib31]-PYY(23-36) [compound No. 365]”, for which the “food intake suppression rate (%)” value came out at 37.8%.

In the case of “Ac-[Glu23, D-Pro24, Iva25, Pya(4)26, Cha27,36, Leu(Me)28, Lys30, Aib31]-PYY(23-36) [compound No. 363]”, the “food intake suppression rate (%)” value was found to be 27.7%. In the case of “4-Imidazolecarbonyl-[D-Hyp24, Iva25, Pya(4)26, Cha27,36, Leu(Me)28, Lys(Ac)30, Aib31]-PYY(23-36) [compound No. 362]” it was 54.2%.
